≈ marks a conversion by molar mass, not a printed value.

What is called aqueous solubility is the dissolved amount per volume that the medium holds.

The conditions of this series: for aqueous solubility: pH 6.8.

With `Cn1cncc1CCNC(=O)[C@H]1CC1(C)C`, the MDR1-MDCK efflux ratio came out at 8.23; the intrinsic clearance, human liver microsomes was no more than 4.74 mL/min/kg; the intrinsic clearance, rat liver microsomes is no more than 10.7 mL/min/kg; the aqueous solubility amounted to 28.8 µg/mL (≈ 130 µM).

`CN(CCc1ccccn1)c1cnc2ccccc2n1`: the MDR1-MDCK efflux ratio came out at 0.64; the intrinsic clearance, human liver microsomes amounted to 86.3 mL/min/kg; the intrinsic clearance, rat liver microsomes was 862 mL/min/kg; the aqueous solubility worked out at 44.5 µg/mL (≈ 169 µM).

As for `Cc1cnc(CS(=O)(=O)C2CCCC2)cn1`, the aqueous solubility is 36.2 µg/mL (≈ 151 µM).

For the compound `C=CC(=O)Nc1cccc(Nc2nc(Nc3ccc(Oc4ccnc(C(=O)NC)c4)cc3)ncc2F)c1`, the MDR1-MDCK efflux ratio came to 13.2; the fraction unbound, human plasma was determined as 0.00395; the intrinsic clearance, human liver microsomes stood at 66.5 mL/min/kg; the intrinsic clearance, rat liver microsomes came out at 322 mL/min/kg.

Regarding `NC(=O)Cn1ccc(-c2ccccc2)n1`, the MDR1-MDCK efflux ratio amounted to 0.792; the intrinsic clearance, human liver microsomes is no more than 4.74 mL/min/kg; the intrinsic clearance, rat liver microsomes was no more than 10.7 mL/min/kg; the aqueous solubility worked out at 40.5 µg/mL (≈ 201 µM).

Take `COc1nc2c(cc1CNC(=O)N1CC[C@@H](O)C1)C(=O)N(C1CCCC1)C2`: the MDR1-MDCK efflux ratio was 32; the intrinsic clearance, human liver microsomes was no more than 4.74 mL/min/kg; the intrinsic clearance, rat liver microsomes was no more than 10.7 mL/min/kg.

`CC1(C)[C@@H]2C[C@H]1[C@@]1(O)[C@@H](C2)Oc2c(ccc(O)c2C(=O)NCCNc2ccccn2)[C@@H]1O`: the MDR1-MDCK efflux ratio came out at 24.5; the intrinsic clearance, human liver microsomes is 322 mL/min/kg; the intrinsic clearance, rat liver microsomes was determined as 2010 mL/min/kg.

Compound `CC(C)c1ccc(NC(=O)Cn2cnc3c2c(=O)n(C)c(=O)n3C)cc1` showed an intrinsic clearance, human liver microsomes of 16.1 mL/min/kg; an intrinsic clearance, rat liver microsomes of 195 mL/min/kg; an aqueous solubility of 12.7 µg/mL (≈ 35.7 µM).

Regarding `CCc1c(C(=O)N2CC[C@@](O)(CC(C)C)[C@@H](Oc3ccc(F)cc3)C2)[nH]c2ccc(C)cc12`, the MDR1-MDCK efflux ratio came out at 4.15; the intrinsic clearance, human liver microsomes was found to be 104 mL/min/kg; the intrinsic clearance, rat liver microsomes was determined as 1290 mL/min/kg.

Consider `CCn1cc(CN2CCC(c3nc(N(C)C)ncc3-c3ccc(OC)cc3)CC2)c(C)n1`, for which the MDR1-MDCK efflux ratio amounted to 13.3; the intrinsic clearance, human liver microsomes was 158 mL/min/kg; the intrinsic clearance, rat liver microsomes turned out to be 473 mL/min/kg; the aqueous solubility was determined as 54 µg/mL (≈ 124 µM).

As to `O=C1CCCN1CCc1nc(-c2ccc3[nH]c(=O)oc3c2)cs1`, the MDR1-MDCK efflux ratio came to 19.1; the intrinsic clearance, human liver microsomes was no more than 4.74 mL/min/kg; the intrinsic clearance, rat liver microsomes was 65.9 mL/min/kg; the aqueous solubility is 59 µg/mL (≈ 179 µM).

Compound `Cc1ccc(NC(=O)c2cccc3cccnc23)cc1` gave an intrinsic clearance, human liver microsomes of 206 mL/min/kg; an intrinsic clearance, rat liver microsomes of 240 mL/min/kg; an aqueous solubility of 5.7 µg/mL (≈ 21.7 µM).

Take `Nc1nc(-c2ccccc2)nc2nc(C3CCCN(CC(=O)N4CCCC4)C3)ccc12` (stereo unspecified): the MDR1-MDCK efflux ratio stood at 12.5; the intrinsic clearance, human liver microsomes came to 5.81 mL/min/kg; the intrinsic clearance, rat liver microsomes was determined as 186 mL/min/kg; the aqueous solubility was 68.6 µg/mL (≈ 165 µM).

With `CSc1nnc(CCCNc2cc(C)ccn2)n1C1CCCC1`, the MDR1-MDCK efflux ratio was determined as 18.2; the intrinsic clearance, human liver microsomes was found to be 138 mL/min/kg; the intrinsic clearance, rat liver microsomes worked out at 3220 mL/min/kg.

As to `COc1ccc(/C=C/C(=O)c2c(C)nc3ccccc3c2N)cc1`, the MDR1-MDCK efflux ratio was 0.197; the intrinsic clearance, human liver microsomes was found to be 182 mL/min/kg; the intrinsic clearance, rat liver microsomes came out at 1190 mL/min/kg; the aqueous solubility was 39.6 µg/mL (≈ 124 µM).

For the compound `Cc1cc(-c2nc(N(C)C)no2)cc(O)n1`, the MDR1-MDCK efflux ratio is 0.726; the intrinsic clearance, human liver microsomes is no more than 4.74 mL/min/kg; the intrinsic clearance, rat liver microsomes came out at 31.7 mL/min/kg.

As for `Cc1cc(N(C)C)nc(-n2ccnc2)n1`, the MDR1-MDCK efflux ratio is 0.704; the intrinsic clearance, human liver microsomes came to 39.7 mL/min/kg; the intrinsic clearance, rat liver microsomes turned out to be 83.1 mL/min/kg; the aqueous solubility was found to be 28.5 µg/mL (≈ 140 µM).

For `CC(=O)Nc1ccc(C(=O)N2CCCCC2c2nc(N)ncc2-c2cccc(Cl)c2)cc1` (stereo unspecified), the MDR1-MDCK efflux ratio amounted to 98; the fraction unbound, human plasma stood at 0.0331; the fraction unbound, rat plasma amounted to 0.0384; the intrinsic clearance, human liver microsomes stood at 53.3 mL/min/kg. This compound also had an intrinsic clearance, rat liver microsomes of 651 mL/min/kg and an aqueous solubility of 57.5 µg/mL (≈ 128 µM).

On to `C[C@@H]1c2nnn(-c3ncc(F)cn3)c2CCN1C(=O)c1cccc(C(F)(F)F)c1Cl`, for which the MDR1-MDCK efflux ratio was determined as 3.42; the fraction unbound, human plasma was determined as 0.0931; the fraction unbound, rat plasma was determined as 0.174; the intrinsic clearance, human liver microsomes was no more than 4.74 mL/min/kg. The intrinsic clearance, rat liver microsomes is no more than 10.7 mL/min/kg and the aqueous solubility turned out to be 35.4 µg/mL (≈ 80.2 µM).

With `O=C(c1ccc(F)cc1)N1Cc2nc[nH]c2C[C@H]1c1nc(-c2ccc(Cl)cc2)no1`, the intrinsic clearance, human liver microsomes was 21.3 mL/min/kg; the intrinsic clearance, rat liver microsomes was determined as 133 mL/min/kg; the aqueous solubility was determined as 20.2 µg/mL (≈ 47.7 µM).

`Cc1ccc(Cn2nc(C(=O)N[C@@H]3C(C)(C)[C@@H]4CC[C@@]3(C)C4)cc2-c2ccc(Cl)c(C)c2)cc1`: the MDR1-MDCK efflux ratio turned out to be 0.636; the intrinsic clearance, human liver microsomes was found to be 181 mL/min/kg; the intrinsic clearance, rat liver microsomes came out at 676 mL/min/kg; the aqueous solubility is 1.29 µg/mL (≈ 2.71 µM).

For the compound `C=CC[C@]1(O)CC[C@H]2[C@@H]3CCC4=CC(=O)CCC4=C3C=C[C@@]21C`, the MDR1-MDCK efflux ratio was found to be 0.761; the intrinsic clearance, human liver microsomes turned out to be 58.2 mL/min/kg; the intrinsic clearance, rat liver microsomes is 592 mL/min/kg.

Take `Cc1nc(CS(C)(=O)=O)sc1C(=O)Nc1ccccc1`: the intrinsic clearance, human liver microsomes is no more than 4.74 mL/min/kg and the intrinsic clearance, rat liver microsomes is no more than 10.7 mL/min/kg.

On to `CN(C)C(=O)Cc1nc(-c2cc3cc(Cl)ccc3o2)cs1`, for which the aqueous solubility is 2.41 µg/mL (≈ 7.51 µM).

Consider `Cc1nccc(-c2ccc(-c3noc(CN4CCOCC4)n3)cc2)n1`, for which the MDR1-MDCK efflux ratio came out at 0.677; the intrinsic clearance, human liver microsomes was no more than 4.74 mL/min/kg; the intrinsic clearance, rat liver microsomes came out at 106 mL/min/kg; the aqueous solubility came to 61 µg/mL (≈ 181 µM).

Turning to `CCOc1cc(N2CCOC3(CCCC3)C2)ncn1`, the MDR1-MDCK efflux ratio was determined as 0.579; the intrinsic clearance, human liver microsomes is 37.4 mL/min/kg; the intrinsic clearance, rat liver microsomes amounted to 631 mL/min/kg.

With `CCOc1cc2nn(CCC(C)(C)O)cc2cc1NC(=O)c1cccc(C(F)F)n1`, the MDR1-MDCK efflux ratio is 11; the fraction unbound, human plasma worked out at 0.0126; the fraction unbound, rat plasma amounted to 0.0186; the intrinsic clearance, human liver microsomes was no more than 4.74 mL/min/kg. The compound also had an intrinsic clearance, rat liver microsomes of no more than 10.7 mL/min/kg and an aqueous solubility of 3.55 µg/mL (≈ 8.48 µM).

With `O=C(CCCc1ccc(F)cc1)N1CCN(c2ccccc2)C(=O)C1`, the MDR1-MDCK efflux ratio was 0.896; the intrinsic clearance, human liver microsomes is no more than 4.74 mL/min/kg; the intrinsic clearance, rat liver microsomes amounted to 176 mL/min/kg; the aqueous solubility is 49.2 µg/mL (≈ 145 µM).

Take `CC(=O)N1CCC(c2ccccn2)CC1`: the MDR1-MDCK efflux ratio amounted to 0.791; the intrinsic clearance, human liver microsomes is no more than 4.74 mL/min/kg; the intrinsic clearance, rat liver microsomes was no more than 10.7 mL/min/kg; the aqueous solubility is 48.3 µg/mL (≈ 237 µM).

As to `COc1cc2cc(N)c(C3CCNCC3)nc2cc1OC`, the intrinsic clearance, human liver microsomes was no more than 4.74 mL/min/kg and the intrinsic clearance, rat liver microsomes was no more than 10.7 mL/min/kg.

Regarding `CN1CCN(c2oc(-c3cccc4ccccc34)nc2C#N)CC1`, the MDR1-MDCK efflux ratio came to 0.363; the intrinsic clearance, human liver microsomes came out at 94.3 mL/min/kg; the intrinsic clearance, rat liver microsomes is 1600 mL/min/kg.

In the case of `NC(=O)c1noc([C@@H](CCCC2CCCCC2)CC(=O)NO)n1`, the intrinsic clearance, human liver microsomes came to 7.31 mL/min/kg.

The compound `CCCn1c(=O)c2c(nc3n2CCN3c2ccc(C)cc2)n(C)c1=O` showed an aqueous solubility of 0.15 µg/mL (≈ 0.442 µM).

For the compound `Cc1cc(Oc2cnccn2)ccc1N`, the intrinsic clearance, human liver microsomes is no more than 4.74 mL/min/kg; the intrinsic clearance, rat liver microsomes was 31.2 mL/min/kg; the aqueous solubility came to 21.9 µg/mL (≈ 109 µM).

Take `O=c1n(CCn2ccnc2)nnn1-c1cccs1`: the MDR1-MDCK efflux ratio was determined as 0.738; the intrinsic clearance, human liver microsomes is no more than 4.74 mL/min/kg; the intrinsic clearance, rat liver microsomes is 55.6 mL/min/kg.

`CCN(C/C=C\c1ccc(C2CCCCC2)c(Cl)c1)C1CCCCC1` gave a fraction unbound, human plasma of 0.0014; a fraction unbound, rat plasma of 0.00541; an intrinsic clearance, human liver microsomes of 47.5 mL/min/kg; an intrinsic clearance, rat liver microsomes of 591 mL/min/kg. The compound further gave an aqueous solubility of 6.6 µg/mL (≈ 18.3 µM).

Compound `CCC(=O)N1CCCC(C(=O)N2CCc3c(Cl)cc(Cl)cc3C2C)C1` (stereo unspecified) returned an intrinsic clearance, human liver microsomes of 416 mL/min/kg; an intrinsic clearance, rat liver microsomes of 1510 mL/min/kg; an aqueous solubility of 54.8 µg/mL (≈ 143 µM).

For the compound `O=C(CN1CCCC1=O)NCC1(CO)CCCC1`, the MDR1-MDCK efflux ratio stood at 2.26; the intrinsic clearance, human liver microsomes is no more than 4.74 mL/min/kg; the intrinsic clearance, rat liver microsomes is no more than 10.7 mL/min/kg.

Take `CCn1ncc(-c2cc(C(F)F)nc(NCCCOC)n2)c1C`: the MDR1-MDCK efflux ratio came to 0.525; the intrinsic clearance, human liver microsomes was 43.6 mL/min/kg; the intrinsic clearance, rat liver microsomes came out at 412 mL/min/kg; the aqueous solubility is 44.7 µg/mL (≈ 137 µM).

Consider `CC(=O)n1c(/C=C2/N=C(c3ccc(F)cc3)OC2=O)cc2ccccc21`, for which the intrinsic clearance, human liver microsomes turned out to be 109 mL/min/kg; the intrinsic clearance, rat liver microsomes was 144 mL/min/kg; the aqueous solubility came out at 5.43 µg/mL (≈ 15.6 µM).

For `CS(=O)(=O)Cc1ccn(-c2ccccc2)n1`, the MDR1-MDCK efflux ratio came out at 0.661; the intrinsic clearance, human liver microsomes is no more than 4.74 mL/min/kg; the intrinsic clearance, rat liver microsomes is no more than 10.7 mL/min/kg; the aqueous solubility amounted to 32.2 µg/mL (≈ 136 µM).

`Cc1nc(CCNc2cnccc2C#N)cs1` yielded an intrinsic clearance, human liver microsomes of 55.6 mL/min/kg and an intrinsic clearance, rat liver microsomes of 391 mL/min/kg.

`CN(C)C(=O)COC(=O)Cc1ccc(OC(=O)c2ccc(NC(=N)N)cc2)cc1`: the MDR1-MDCK efflux ratio was found to be 0.707; the intrinsic clearance, human liver microsomes stood at 102 mL/min/kg; the intrinsic clearance, rat liver microsomes stood at 936 mL/min/kg; the aqueous solubility is 77.6 µg/mL (≈ 195 µM).

Take `c1ccc(-n2ncc3c(-n4ccnc4)ncnc32)cc1`: the MDR1-MDCK efflux ratio was 0.618; the intrinsic clearance, human liver microsomes was 16 mL/min/kg; the intrinsic clearance, rat liver microsomes was 376 mL/min/kg; the aqueous solubility is 4.97 µg/mL (≈ 18.9 µM).

Take `O=C(CCn1ccc2ccccc21)N1CCC(n2c(=O)[nH]c3ccccc32)CC1`: the intrinsic clearance, human liver microsomes was found to be 269 mL/min/kg and the intrinsic clearance, rat liver microsomes came out at 5450 mL/min/kg.

The record behind these values is the Biogen ADME set (Fang et al. 2023).
